Laboratory results: US20240016874A1, “COMPOSITIONS AND METHODS FOR PREVENTING AND TREATING CORONAVIRUSES” (priority 2020, published 2024)
Like-named read-outs stand apart in the source and are kept apart here.

Assays:
[1] = tested on: SARS-CoV-2 MLV-PP infecting Expi-293F-ACE2 cells
[2] = tested on: SARS-CoV-2 MLV-PP infecting Expi-293F-ACE2 cells; test: microbe, parasite or virus in culture; details: Severe acute respiratory syndrome coronavirus 2, read-out: IC50 of thymoquinone, SARS-CoV-2-PP infection

## COc1cnc(-n2cnc(C)n2)c2[nH]cc(C(=O)C(=O)N3CCN(C(=O)c4ccccc4)CC3)c12 [temsavir, reference compound]
[1]
  inhibition of SARS-CoV-2 MLV-PP infecting Expi-293F-ACE2 cells: does not inhibit

## CC1=CC(=O)C(C(C)C)=CC1=O [thymoquinone]
[1]
  block of the viral infection: block the viral infection
  cell toxicity at high concentrations: can cause cell death
  concentration that blocks SARS-CoV-2-MLV-PP infection without any cell toxicity: 1 to 10 µM
  increased effectiveness on adding black seed oil to thymoquinone: about 16.0%
[1]; read-out: IC50 of thymoquinone, SARS-CoV-2-PP infection
  IC50: 3.6 µM
[2]
  IC50: 4.3 µM

## C[C@@H]1CCO[C@H]2Cn3cc(C(=O)NCc4ccc(F)cc4F)c(=O)c(O)c3C(=O)N12 [dolutegravir, reference compound]
[1]
  inhibition of SARS-CoV-2 MLV-PP: potent inhibitor
